Results: patent US5244916A, “Inhibition of respiratory burst using posttranslational modification inhibitors” (The Scripps Research Institute, priority 1992, dated 1993)
Like-named read-outs stand apart in the source and are kept apart here.

Tests used:
Type in all cases: cell-based
[1] = tested on: HL-60 cells (NADPH oxidase / respiratory burst); test: O2- formation by DMSO-differentiated HL-60 cells, FMLP-stimulated (SOD-sensitive cytochrome c reduction); details: for activity at 0.4 µM / activity at 2 µM / activity at 4 µM / activity at 10 µM: Homo sapiens, HL-60; for activity at 0.4 µM: 0.4 μM compactin; for activity at 2 µM: 2 μM compactin; for activity at 4 µM: 4 μM compactin; for activity at 10 µM: 10 μM compactin
Description: HL-60 cells were maintained in stationary culture in RPMI 1640 medium (Gibco, Grand Island, NY) containing 10% fetal bovine serum at 37° C in an atmosphere of 95 air and 5% CO2. The cells (about 8×10^5 /ml) were differentiated into neutrophil-like cells by treatment with 1.3% DMSO for six days (Harris, et al., J. Leukocyte Biol. 37: 407-422 (1985)). The cells were treated with the indicated levels of compactin or lovastatin by addition of a 1,000-fold concentrated stock solution to the appropriate concentration on day 4 of differentiation. […] In studies of the protective effect of mevalonic acid, the compound was added as the mevalonolactone (Sigma Chemical Co., St. Louis, MO) at a concentration of 1 mM to the cell culture on days 4 to 6. Similarly, cholesterol was added in the form of LDL prepared according to the method of Curtiss and Edgington (Curtiss, et al., J. Biol. Chem. 257: 15213-15221 (1991)) at a final concentration of 50 μg/ml; ubiquinone (Sigma Chemical Co., St. Louis, MO) was added as Coenzyme Q-10 at a final concentration of 0.5 mM; and dolichol (Sigma Chemical Co., St. Louis, MO) was added as a dispersion in phosphatidylcholine at a final concentration of 0.5 mM (Cutts, et al., J. Cell Physiol. 139: 550-555 (1989)).
O2 --formation by HL-60 cells was assessed by the SOD-sensitive reduction of cytochrome c. Cells were suspended at 1×10^7 /ml in Krebs-Ringer Hepes buffer with 5.5 mM glucose (KRHG) and 50-100μl of cells were added to a cuvette containing 100 μM cytochrome c (type III, Sigma Chemical Co., St. Louis, MO), ±300 μg/ml SOD (Sigma Chemical Co., St. Louis, MO) in 700-750 μl KRHG. Cytochalasin b (Sigma Chemical Co., St. Louis, MO) was added to a final concentration of 5 μg/ml, and the cells were incubated at 37° C. for five minutes while a stable baseline at a wavelength of 550 nm was obtained. O2 --formation was initiated by the addition of 1 μM N-formylmethionylleucylphenylalanine (FMLP; Sigma Chemical Co., St. Louis, MO) or 1μg/ml phorbol myristate acetate (PMA; Sigma Chemical Co., St. Louis, MO). Cytochrome c reduction at 550nm was continuously monitored and maximal rate and extent of the reaction calculated.

HL-60 cells = test: HL-60 differentiation after DMSO (N-formyl peptide receptor and CD14 markers); details: concentrations of the studies
Description: Cell viability was determined by uptake of propidium iodide (537-059; Calbiochem-Behring Corp., La Jolla, CA), detected from the emission fluorescence at 625/35 nm using a DM560 dichronic mirror (Krishan, J. Cell. Biol. 66: 188-192 (1975)). Expression of N-formyl peptide receptor was determined using fluorescein-labeled N-CHONle-Leu-Phe-Nle-Tyr-Lys (Molecular Probes, Inc., Eugene, OR) essentially by the method of Sklar and Finney (Sklar and Finney, Cytometry 3: 161-165 (1982)). Specificity of ligand binding was determined in the presence of 4 mM unlabeled T-boc peptide. CD14 expression was determined using monoclonal antibody 3C10 at a dilution of 1:1,000 (see Goyert and Ferrero, in Leucocyte Typing III: White Cell Differentiation Antigens, McMichael, ed., Oxford Univ. Press, NY, pp. 613-619 (1988)), with detection using a fluorescein-labeled secondary antibody. Flow cytometric analyses were performed on a FACSIV (registered trademark of Becton-Dickinson, San Jose, CA) equipped with a 2W argon laser (Coherent Inc., Palo Alto, collected in list mode and analyzed using the Consort 30 program (Becton-Dickinson, San Jose, CA) after collecting 10,000 events.
(§1) HL-60 differentiation was assessed using two distinct markers: appearance of N-formyl peptide receptors and appearance of the CD14 antigen.

CD14 antigen = test: HL-60 differentiation: CD14 antigen expression (flow cytometry); details: compactin-treated cells
Description: HL-60 cells were maintained in stationary culture in RPMI 1640 medium (Gibco, Grand Island, NY) containing 10% fetal bovine serum at 37° C in an atmosphere of 95 air and 5% CO2. The cells (about 8×10^5 /ml) were differentiated into neutrophil-like cells by treatment with 1.3% DMSO for six days (Harris, et al., J. Leukocyte Biol. 37: 407-422 (1985)). The cells were treated with the indicated levels of compactin or lovastatin by addition of a 1,000-fold concentrated stock solution to the appropriate concentration on day 4 of differentiation. […]
Cell viability was determined by uptake of propidium iodide (537-059; Calbiochem-Behring Corp., La Jolla, CA), detected from the emission fluorescence at 625/35 nm using a DM560 dichronic mirror (Krishan, J. Cell. Biol. 66: 188-192 (1975)). Expression of N-formyl peptide receptor was determined using fluorescein-labeled N-CHONle-Leu-Phe-Nle-Tyr-Lys (Molecular Probes, Inc., Eugene, OR) essentially by the method of Sklar and Finney (Sklar and Finney, Cytometry 3: 161-165 (1982)). Specificity of ligand binding was determined in the presence of 4 mM unlabeled T-boc peptide. […]
as §1

Rap1 = test: Western blot of Rap1 in membrane and cytosol fractions of HL-60 cells; details: 10 μM compactin
Description: Western blots were performed as described in Bokoch, et al., Cell Biol. 106: 1927-1936 (1988).
The ability of the concentrations of compactin used to inhibit endogenous HL-60 cell LMWG isoprenylation was assessed. Inhibition of Rapl isoprenylation was determined in two ways. Western blotting was used to evaluate the presence of Rap1 in cytosol or membrane fractions of compactin-treated vs. untreated cells (see FIG. 1). […] HL-60 cells were treated with ±10 μM compactin, and membrane and cytosol fractions were prepared as described in Example 1. Equal amounts of membrane protein (100 μg) and cytosol protein (70 μg), respectively,were loaded in each lane. Total membrane protein obtained in this experiment from about 3×10^8 cells was about 3 mg and cytosolic protein was about 2 mg. The samples were analyzed on 15% SDS-polyacrylamide gels (SDS-PAGE), transferred to nitrocellulose, and blotted with specific anti-Rapl antibody, R61, at 1:500 dilution. Detection was with ^125 I-goat anti-rabbit IgG and autoradiograms were exposed for 24-36 hours with intensifying screen at -70° C.

[2] = read-out: FMLP-stimulated O2- formation, Extent
[3] = read-out: FMLP-stimulated O2- formation, Rate

`CC[C@H](C)C(=O)O[C@H]1CCC=C2C=C[C@H](C)[C@H](CC[C@@H]3C[C@@H](O)CC(=O)O3)[C@H]21` [compactin] gave an activity at 0.4 µM [1, 2] of 71 ± 10%, an activity at 0.4 µM [1, 3] of 77 ± 10% and an activity at 2 µM [1, 2] of 36 ± 11%. It also gave an activity at 2 µM [1, 3] of 47 ± 11%, an activity at 4 µM [1, 2] of 22 ± 1% and an activity at 4 µM [1, 3] of 39 ± 4.1%. For the same molecule, the activity at 10 µM [1, 2] was 12 ± 2.1%, the activity at 10 µM [1, 3] was 15 ± 2.6% and the “inhibition of O2- formation in response to FMLP” value ([1]; various concentrations) was “dose-dependent inhibition”. For the same molecule, the “ability of HL-60 cells to differentiate normally upon exposure to DMSO” value (HL-60 cells) was “neither was the ability of these cells to differentiate normally”, the CD14 expression (CD14 antigen) was “normal” and the “Rap1 membrane association after treatment” value (Rap1) was “a portion of this GTP-binding protein was still membrane associated”. For the same molecule, the “appearance of Rap1 in the cytosolic fraction” value (Rap1) was “large amounts” and the “total Rap1 previously associated with the membrane pellet now soluble” value (Rap1; densitometry, n=3) was 60-70%.
